Results published in patent EP2966448B1, “METHOD FOR THE PREDICTION OR PROGNOSIS OF THE RESPONSE OF A HUMAN SUBJECT SUFFERING FROM CANCER TO TREATMENT WITH AN ANTAGONIST OF THE NK1 RECEPTOR” (priority 2013, dated 2014).
Like-named read-outs stand apart in the source and are kept apart here.

Key:
[1] = tested on: Non Hodgkin Lymphoma B (diffuse B cell lymphoma); assay: Inhibition of primary tumor cell cultures vs Kras mutation (Example 2); type: cell-based, human; conditions: Homo sapiens, B-cell, Cases with Kras non-mutated (wild type); 100 micromolar; read-out: Percentage of inhibition of cell cultures
Hodgkin lymphoma = assay: Inhibition of primary tumor cell cultures (48 hours) vs NK1 receptor immunostaining (Example 1); type: cell-based; conditions: Homo sapiens, 1 micromolar, read-out: Percentage of inhibition of cell cultures
Experimental: (§1) Cell cultures. To obtain tumor cells from human primary tumors we used the method described in De Bari et al. (De Bari et al. 2001). Briefly, small pieces of the tumors were digested into a hyaluronidase solution (Sigma-Aldrich, USA) at a concentration of 1 mg/ml during 15 minutes at 37°C, and then they were treated with 6 mg/ml of collagenase type IV (Invitrogen) during 2 hours at 37°C. Consecutively, cells were washed, and resuspended in the DMEM culture medium with high concentration of glucose (Dulbecco's Modified Eagle's Medium, Invitrogen) supplemented with 1% of antibiotics-antimycotics (Invitrogen) and with 1% of sodium pyruvate (Invitrogen), and the cells were seeded in culture slides at a concentration of 10.000 cells per square centimeter. When cells reached confluence, the adherent cells were separated using sterile trypsin at 0,5% (Invitrogen) and they were used among passages 3 and 9. For the assays shown next, tumor cells were seeded on slides at a concentration of 25.000 cells per well. A total of 6 wells containing the tumor cells were used as survival control. […] All the cultures were kept during 48 hours and later on recollected for their analysis.
(§2) Immunohistochemistry techniques. The presence of NK1 receptors was also analyzed using immunohistochemistry techniques. Briefly, a sample of each of the cultures of the cell lines used in the present invention, was centrifuged (5 minutes at 1.500 rpm) and the pellet obtained was dehydrated using increasing concentrations of ethanol and, finally, xylol. Then, said dehydrated samples were embedded in paraffin, creating a block of cells. Such paraffin blocks were cut with a microtome at 5 microns thickness, and were placed on microscope slides adequate to perform immunohistochemistry techniques. Consecutively, they were de-paraffinized by immersing them in xylol, to be finally hydrated using a solution containing decreasing concentrations of ethanol, and finally submerged them into water. […] After this, the samples were left to cool down at room temperature for 10 minutes. The endogenous peroxidase activity was blocked with 3% peroxide of hydrogen for 30 minutes at room temperature. After washing the samples with 0.05 M of Tris buffer, they were incubated with 10% non-immune pork serum at for 30 minutes at room temperature. To analyze the expression of NK1 receptors, the cellular samples were incubated in the presence of anti-NK1 antibodies (S8305, Sigma-Aldrich) diluted 1:1000, overnight at 4°C. Afterwards, the samples were washed in Tris buffer 0.05 M at room temperature. The next step was the addition of Envision System-HRP (Dako) reagents for 30 minutes at room temperature. Then, the samples were washed again in Tris buffer 0.05 M and the immunoreactivity was visualized through light microscopy with a chromogenic solution containing 3,3'-Diaminobenzidine (DAB+; Dako, USA). To differentiate the cell nuclei, they were slightly stained with hematoxylin. As negative control, it was used samples not incubated with the primary antibody anti-NK1, which was replaced by non-immune serum. All the samples were evaluated.
(§3) To value the immunostaining in each of the cases six cuts were performed to be analyzed by the immunohistochemistry technique. In each of the six cuts, it was counted cells in 20 fields (magnification 400x) using an Olympus microscope (model CX31). In each field it was counted the total number of cells and the number of cells presenting immunostaining, calculating afterwards the percentage of cells which presented immunostaining.

[2] = tested on: Urinary bladder carcinoma (transitional cell carcinoma); assay: Inhibition of primary tumor cell cultures vs Kras mutation (Example 2); type: cell-based, human; conditions: Homo sapiens, 100 micromolar, read-out: Percentage of inhibition of cell cultures
Experimental: (§4) To obtain tumor cells from human primary tumors we used the method described in De Bari et al. (De Bari et al. 2001). Briefly, small pieces of the tumors were digested into a hyaluronidase solution (Sigma-Aldrich, USA) at a concentration of 1 mg/ml during 15 minutes at 37°C, and then they were treated with 6 mg/ml of collagenase type IV (Invitrogen) during 2 hours at 37°C. Consecutively, cells were washed, and resuspended in the DMEM culture medium with high concentration of glucose (Dulbecco's Modified Eagle's Medium, Invitrogen) supplemented with 1% of antibiotics-antimycotics (Invitrogen) and with 1% of sodium pyruvate (Invitrogen), and the cells were seeded in culture slides at a concentration of 10.000 cells per square centimeter. When cells reached confluence, the adherent cells were separated using sterile trypsin at 0,5% (Invitrogen) and they were used among passages 3 and 9. For the assays shown next, tumor cells were seeded on slides at a concentration of 25.000 cells per well. A total of 6 wells containing the tumor cells were used as survival control. […] All the cultures were kept during 48 hours and later on recollected for their analysis.
(§5) In each case the presence or not of mutations in K-ras gene was determined.
(§6) To determine the existence of mutations in the K-ras gene DNA from cancer tumor cells was extracted from samples obtained from the different cancer tumor cells, using DNA extraction kits from Takara (Madison, WI, US) or Ambion (Huntingdon, Cambridgeshire, United Kingdom), following the manufacturer's instructions, and as it has been previously published (Di Fiore F, et al. 2007). Consecutively it was analyzed by sequencing the exon 2 of the KRAS gene, , by means of PCR amplification from previously extracted cancer tumor DNA, using the following sense primer (SEQ ID NO. 15): 5'-[sequence]-3' and anti-sense primer (SEQ ID NO. 16): 5'-[sequence]-3'. After the purification using the Qiagen extraction kit, the PCR products were sequenced using the Big Dye Terminator Kit V3.1 (Applied Biosystems, Foster City, CA, U.S.) and an ABI Prism 377 or 3100 DNA sequencer (Applied Biosystems). The presence of a heterozygous mutation in the KRAS gene in cancer tumor cells of the cultures was defined as the appearance of a mutant peak of a height of at least a third of the wild type. All the sequence analysis were executed at least twice in two independent PCR.
(§7) The antibody against NK1 receptor (Table 16) was used at 1/50 concentration. The percentages of inhibition are expressed in percentage of variation in relation to control ± standard deviation.

Colon carcinoma = assay: Inhibition of primary tumor cell cultures (48 hours) vs NK1 receptor immunostaining (Example 1); type: cell-based; conditions: Homo sapiens, 1 micromolar, read-out: Percentage of inhibition of cell cultures
Experimental: as §1, §2, §3

Gastric carcinoma = assay: as above; type: cell-based; conditions: Homo sapiens, 1 micromolar, read-out: Percentage of inhibition of cell cultures
Experimental: as §1, §2, §3

[3] = tested on: Ovarian carcinoma (Adenocarcinoma); assay: Inhibition of primary tumor cell cultures vs Kras mutation (Example 2); type: cell-based, human; conditions: Homo sapiens, 100 micromolar, read-out: Percentage of inhibition of cell cultures
Experimental: (§8) Cell cultures. […] Briefly, small pieces of the tumors were digested into a hyaluronidase solution (Sigma-Aldrich, USA) at a concentration of 1 mg/ml during 15 minutes at 37°C, and then they were treated with 6 mg/ml of collagenase type IV (Invitrogen) during 2 hours at 37°C. Consecutively, cells were washed, and resuspended in the DMEM culture medium with high concentration of glucose (Dulbecco's Modified Eagle's Medium, Invitrogen) supplemented with 1% of antibiotics-antimycotics (Invitrogen) and with 1% of sodium pyruvate (Invitrogen), and the cells were seeded in culture slides at a concentration of 10.000 cells per square centimeter. When cells reached confluence, the adherent cells were separated using sterile trypsin at 0,5% (Invitrogen) and they were used among passages 3 and 9. For the assays shown next, tumor cells were seeded on slides at a concentration of 25.000 cells per well. A total of 6 wells containing the tumor cells were used as survival control. […] All the cultures were kept during 48 hours and later on recollected for their analysis.
as §5, §6, §7

[4] = tested on: human primary tumor cells; assay: Inhibition of primary tumor cell cultures vs low or high expression of the truncated form of NK1 receptor (Example 5; tumor type per table line); type: cell-based; conditions: for Percentage of inhibition of cell cultures: 100 micromolar
Experimental: as §1
The presence of the truncated form of NK1 receptor was determined and then cells were cultured in presence of several antagonists of the NK1 receptor.
In each case the presence of the truncated form of the NK1 receptor was determined.
To determine the presence of the truncated form of the gene of NK1 receptor PCR technique was performed (Polymerase Chain Reaction). The extraction of RNA, amplifications of PCR, cycle conditions and quantitative analysis were executed as it has been previously described. The specific primers were the following: For the full-length NK1R receptor (NM_001058.3; forward (SEQ ID NO: 17)-: 5'-[sequence]-3 ' and reverse- (SEQ ID NO:18): 5'-[sequence]-3') and for the truncated NK1receptor (NM_015727.2; forward (SEQ ID NO: 19): 5'-[sequence]-3 and reverse (SEQ ID NO;20): 5'-[sequence]-3').
Cases were distributed in two groups: • Group A -low expression of the truncated form of NK1 receptor- for those cases wherein the expression of the truncated form of NK1 receptor was less than double the expression of the full length form of such receptor. • Group B -high expression of the truncated form of NK1 receptor- for those cases wherein the expression of the truncated form of the NK1 receptor was higher than double the expression of the full length form of such receptor.
The percentages of inhibition are expressed in percentage of variation in relation to the control ± standard deviation.

[5] = tested on: Carcinoma of the uterine cervix; assay: Inhibition of primary tumor cell cultures (48 hours) vs NK1 receptor immunostaining (Example 1); type: cell-based; conditions: Homo sapiens, 1 micromolar, read-out: Percentage of inhibition of cell cultures
Experimental: as §1, §2, §3

[6] = tested on: human primary tumor cells; assay: Inhibition of primary tumor cell cultures vs absence or presence of AKT protein (Example 4; tumor type per table line); type: cell-based; conditions: cancer cell cultures showing more presence of AKT, compared; non-peptidic antagonists 100 micromolar, antibody 1/50
Experimental: as §8
Afterwards, the cells were cultured in presence of several antagonists of the NK1 receptor.
In each case it was determined the presence or absence of the AKT protein effector downstream in the PI3 Kinases pathway.
To determine the presence of the AKT protein in the different cultures Western Blot technique was performed (following the description in example 1-Western Blot section), but using as primary antibody with reference: Akt (pan) (11E7) Rabbit mAb (4685, Cell Signalling).
The antibody against NK1 receptor (Table 26) was used at 1/50 concentration. The percentages of inhibition are expressed in percentage of variation in relation to control ± standard deviation.

[7] = tested on: Gastric carcinoma (Adenocarcinoma); assay: Inhibition of primary tumor cell cultures vs Kras mutation (Example 2); type: cell-based, human; conditions: Homo sapiens, 100 micromolar, read-out: Percentage of inhibition of cell cultures
Experimental: as §8, §5, §6, §7

[8] = tested on: Thyroid carcinoma (papillary carcinoma); assay: as above; type: cell-based, human; conditions: Homo sapiens, 100 micromolar, read-out: Percentage of inhibition of cell cultures
Experimental: as §4, §5, §6, §7

[9] = tested on: Pancreatic carcinoma (Adenocarcinoma); assay: as above; type: cell-based, human; conditions: Homo sapiens, 100 micromolar, read-out: Percentage of inhibition of cell cultures
Experimental: as §8, §5, §6, §7

[10] = tested on: Lung carcinoma (non small cell lung carcinoma); assay: as above; type: cell-based, human; conditions: Homo sapiens, 100 micromolar, read-out: Percentage of inhibition of cell cultures
Experimental: as §4, §5, §6, §7

[11] = NK1 receptor immunostaining Group 1 (less than 20% of the cells)
[12] = NK1 receptor immunostaining Group 2 (20-80% of the cells)
[13] = NK1 receptor immunostaining Group 3 (more than 80% of the cells)
[14] = NK1 receptor immunostaining Intensity grade 1
[15] = NK1 receptor immunostaining Intensity grade 2
[16] = NK1 receptor immunostaining Intensity grade 3
[17] = Cases with Kras non-mutated (wild type)

**Q.** With CC(=O)N1CCN([C@H]2CCN(C(=O)N(C)[C@H](C)c3cc(C(F)(F)F)cc(C(F)(F)F)c3)[C@@H](c3ccc(F)cc3C)C2)CC1 [Casopitant] as the compound, how does the inhibition at 100 µM [1] read?
**A.** Its inhibition at 100 µM is 95 ± 4%.

**Q.** And the inhibition at 1 µM (Hodgkin lymphoma; [11])?
**A.** Its inhibition at 1 µM is 15 ± 2%.

**Q.** What about the inhibition at 1 µM (Hodgkin lymphoma; [12]) of the same compound?
**A.** The inhibition at 1 µM was 47 ± 4%.

**Q.** What about the inhibition at 1 µM (Hodgkin lymphoma; [13]) of the same compound?
**A.** Its inhibition at 1 µM is 95 ± 4%.

**Q.** What about the inhibition at 1 µM (Hodgkin lymphoma; [14]) of the same compound?
**A.** The inhibition at 1 µM was 34 ± 5%.

**Q.** What about the inhibition at 1 µM (Hodgkin lymphoma; [15]) of the same compound?
**A.** Its inhibition at 1 µM is 54 ± 4%.

**Q.** What about the inhibition at 1 µM (Hodgkin lymphoma; [16]) of the same compound?
**A.** The inhibition at 1 µM was 92 ± 4%.

**Q.** What about the inhibition at 100 µM ([2]; Cases with Kras mutated) of the same compound?
**A.** Its inhibition at 100 µM is 25 ± 4%.

**Q.** And the inhibition at 100 µM [2, 17]?
**A.** Its inhibition at 100 µM is 95 ± 6%.

**Q.** And the inhibition at 1 µM (Colon carcinoma; [11])?
**A.** Its inhibition at 1 µM is 13 ± 3%.

**Q.** And the inhibition at 1 µM (Colon carcinoma; [12])?
**A.** Its inhibition at 1 µM is 46 ± 3%.

**Q.** And the inhibition at 1 µM (Colon carcinoma; [13])?
**A.** The inhibition at 1 µM was 92 ± 3%.

**Q.** And the inhibition at 1 µM (Colon carcinoma; [14])?
**A.** The inhibition at 1 µM was 32 ± 4%.

**Q.** And the inhibition at 1 µM (Colon carcinoma; [15])?
**A.** The inhibition at 1 µM was 54 ± 4%.

**Q.** What about the inhibition at 1 µM (Colon carcinoma; [16]) of the same compound?
**A.** Its inhibition at 1 µM is 92 ± 2%.

**Q.** What about the inhibition at 1 µM (Gastric carcinoma; [11]) of the same compound?
**A.** Its inhibition at 1 µM is 12 ± 4%.

**Q.** What about the inhibition at 1 µM (Gastric carcinoma; [12]) of the same compound?
**A.** The inhibition at 1 µM was 46 ± 2%.

**Q.** What about the inhibition at 1 µM (Gastric carcinoma; [13]) of the same compound?
**A.** The inhibition at 1 µM was 90 ± 2%.

**Q.** And the inhibition at 1 µM (Gastric carcinoma; [14])?
**A.** Its inhibition at 1 µM is 31 ± 3%.

**Q.** What about the inhibition at 1 µM (Gastric carcinoma; [15]) of the same compound?
**A.** Its inhibition at 1 µM is 53 ± 3%.

**Q.** What about the inhibition at 1 µM (Gastric carcinoma; [16]) of the same compound?
**A.** Its inhibition at 1 µM is 91 ± 3%.

**Q.** And the inhibition at 100 µM ([3]; Cases with Kras mutated)?
**A.** The inhibition at 100 µM was 29 ± 4%.

**Q.** And the inhibition at 100 µM [3, 17]?
**A.** Its inhibition at 100 µM is 97 ± 6%.

**Q.** And the “Percentage of inhibition of cell cultures” value ([4]; Glioma (astrocytoma), Cases with high expression of the truncated form of NK1 receptor (Group B))?
**A.** The value was 95±7 percentage.

**Q.** And the “Percentage of inhibition of cell cultures” value ([4]; Glioma (astrocytoma), Cases with low expression of the truncated form of NK1 receptor (Group A))?
**A.** Its value is 24±5 percentage.

**Q.** And the “Percentage of inhibition of cell cultures” value ([4]; Lung carcinoma (non small cell lung carcinoma), Cases with high expression of the truncated form of NK1 receptor (Group B))?
**A.** The value was 95±6 percentage.

**Q.** And the “Percentage of inhibition of cell cultures” value ([4]; Lung carcinoma (non small cell lung carcinoma), Cases with low expression of the truncated form of NK1 receptor (Group A))?
**A.** Its value is 25±4 percentage.

**Q.** And the “Percentage of inhibition of cell cultures” value ([4]; Melanoma (Nodular Melanoma), Cases with high expression of the truncated form of NK1 receptor (Group B))?
**A.** Its value is 96±6 percentage.

**Q.** And the “Percentage of inhibition of cell cultures” value ([4]; Melanoma (Nodular Melanoma), Cases with low expression of the truncated form of NK1 receptor (Group A))?
**A.** The value was 23±5 percentage.

**Q.** What about the “Percentage of inhibition of cell cultures” value ([4]; Non Hodgkin Lymphoma B (diffuse B cell lymphoma), Cases with high expression of the truncated form of NK1 receptor (Group B)) of the same compound?
**A.** Its value is 97±4 percentage.

**Q.** And the “Percentage of inhibition of cell cultures” value ([4]; Non Hodgkin Lymphoma B (diffuse B cell lymphoma), Cases with low expression of the truncated form of NK1 receptor (Group A))?
**A.** The value was 24±3 percentage.

**Q.** What about the “Percentage of inhibition of cell cultures” value ([4]; Non Hodgkin Lymphoma T (diffuse T cell lymphoma), Cases with high expression of the truncated form of NK1 receptor (Group B)) of the same compound?
**A.** Its value is 98±3 percentage.

**Q.** What about the “Percentage of inhibition of cell cultures” value ([4]; Non Hodgkin Lymphoma T (diffuse T cell lymphoma), Cases with low expression of the truncated form of NK1 receptor (Group A)) of the same compound?
**A.** The value was 23±4 percentage.

**Q.** What about the “Percentage of inhibition of cell cultures” value ([4]; Prostate carcinoma, Cases with high expression of the truncated form of NK1 receptor (Group B)) of the same compound?
**A.** Its value is 94±4 percentage.

**Q.** And the “Percentage of inhibition of cell cultures” value ([4]; Prostate carcinoma, Cases with low expression of the truncated form of NK1 receptor (Group A))?
**A.** The value was 23±6 percentage.

**Q.** And the “Percentage of inhibition of cell cultures” value ([4]; Thyroid carcinoma (follicular carcinoma), Cases with high expression of the truncated form of NK1 receptor (Group B))?
**A.** The value was 93±4 percentage.

**Q.** What about the “Percentage of inhibition of cell cultures” value ([4]; Thyroid carcinoma (follicular carcinoma), Cases with low expression of the truncated form of NK1 receptor (Group A)) of the same compound?
**A.** Its value is 23±3 percentage.

**Q.** What about the “Percentage of inhibition of cell cultures” value ([4]; Thyroid carcinoma (papillary carcinoma), Cases with high expression of the truncated form of NK1 receptor (Group B)) of the same compound?
**A.** The value was 94±5 percentage.

**Q.** And the “Percentage of inhibition of cell cultures” value ([4]; Thyroid carcinoma (papillary carcinoma), Cases with low expression of the truncated form of NK1 receptor (Group A))?
**A.** Its value is 24±5 percentage.

**Q.** And the “Percentage of inhibition of cell cultures” value ([4]; Undifferentiated Pleomorphic Sarcoma (malignant fibrous histiocytoma grade 3), Cases with high expression of the truncated form of NK1 receptor (Group B))?
**A.** The value was 94±5 percentage.

**Q.** What about the “Percentage of inhibition of cell cultures” value ([4]; Undifferentiated Pleomorphic Sarcoma (malignant fibrous histiocytoma grade 3), Cases with low expression of the truncated form of NK1 receptor (Group A)) of the same compound?
**A.** The value was 25±4 percentage.

**Q.** What about the “Percentage of inhibition of cell cultures” value ([4]; Urinary bladder carcinoma (transitional cell carcinoma), Cases with high expression of the truncated form of NK1 receptor (Group B)) of the same compound?
**A.** The value was 95±7 percentage.

**Q.** And the “Percentage of inhibition of cell cultures” value ([4]; Urinary bladder carcinoma (transitional cell carcinoma), Cases with low expression of the truncated form of NK1 receptor (Group A))?
**A.** Its value is 25±4 percentage.

**Q.** And the “inhibition of cell proliferation” value ([4]; cancer cell cultures that show more expression of the truncated form of NK1 receptor, compared, non-peptidic antagonists 100 micromolar, antibody 1/50)?
**A.** The value was “higher inhibition”.

**Q.** What about the inhibition at 1 µM [5, 11] of the same compound?
**A.** Its inhibition at 1 µM is 16 ± 3%.

**Q.** What about the inhibition at 1 µM [5, 12] of the same compound?
**A.** Its inhibition at 1 µM is 47 ± 4%.

**Q.** And the inhibition at 1 µM [5, 13]?
**A.** Its inhibition at 1 µM is 93 ± 3%.

**Q.** What about the inhibition at 1 µM [5, 14] of the same compound?
**A.** Its inhibition at 1 µM is 33 ± 3%.

**Q.** And the inhibition at 1 µM [5, 15]?
**A.** The inhibition at 1 µM was 53 ± 3%.

**Q.** And the inhibition at 1 µM [5, 16]?
**A.** Its inhibition at 1 µM is 92 ± 2%.

**Q.** What about the “inhibition of cell proliferation” value [6] of the same compound?
**A.** The value was “higher inhibition”.

**Q.** And the inhibition at 100 µM ([7]; Cases with Kras mutated)?
**A.** Its inhibition at 100 µM is 25 ± 5%.

**Q.** And the inhibition at 100 µM [7, 17]?
**A.** Its inhibition at 100 µM is 95 ± 5%.

**Q.** And the inhibition at 100 µM ([8]; Cases with Kras mutated)?
**A.** The inhibition at 100 µM was 24 ± 5%.

**Q.** What about the inhibition at 100 µM [8, 17] of the same compound?
**A.** The inhibition at 100 µM was 94 ± 5%.

**Q.** What about the inhibition at 100 µM ([9]; Cases with Kras mutated) of the same compound?
**A.** Its inhibition at 100 µM is 27 ± 3%.

**Q.** What about the inhibition at 100 µM [9, 17] of the same compound?
**A.** Its inhibition at 100 µM is 93 ± 4%.

**Q.** And the inhibition at 100 µM ([10]; Cases with Kras mutated)?
**A.** Its inhibition at 100 µM is 25 ± 5%.

**Q.** What about the inhibition at 100 µM [10, 17] of the same compound?
**A.** The inhibition at 100 µM was 95 ± 5%.
